Three molecules from ChEMBL document CHEMBL1157406, “Cytotoxic metabolites from the fungal endophyte Alternaria sp. and their subsequent detection in its host plant Polygonum senegalense” (J Nat Prod, 2008) can be followed below.

This experiment has as its system L5178Y. Description: Cytotoxicity against mouse L5178Y cells at 10 ug/ml by MTT assay. Type of experiment: functional.
Molecule `CC[C@H](C)[C@@H]1NC(=O)C(C(C)=O)=C1O` [TENUAZONIC ACID] came in with an Activity of 57.9%.

Molecule `COc1cc(O)c2c(=O)oc3cc(OS(=O)(=O)O)cc(C)c3c2c1` registered an Activity of 89%.

In turn, `Cc1cc(=O)c2c(C)cc(O)cc2o1` displayed an Activity of 95%.
